Columns and labels:
[1] = system: postmenopausal breast cancer patients; assay: Blood pressure in postmenopausal breast cancer patients given oral TAS-108; format: in vivo, human
Description: TAS-108 (40 mg, 80 mg, or 120 mg) was orally administered to postmenopausal breast cancer patients (age: 50 to 78) once a day after breakfast for up to eight weeks. Blood pressure was measured in a sitting position before administration on the day of initiation of administration, and two weeks, four weeks, and eight weeks after initiation of administration.

[2] = system: spontaneously hypertensive rats (SHRs); assay: Blood pressure and heart rate in spontaneously hypertensive rats, tail-cuff method; format: in vivo, rat; conditions: 100 mg once a day for seven days; for change in heart rate: FIG. 6 (TAS-108), FIG. 7 (raloxifene)
Description: TAS-108 (100 mg) was administered to nine-week-old spontaneously hypertensive rats (SHRs) once a day for consecutive seven days. Before final administration of the test drug, and 30 minutes, one hour, two hours, and four hours after the final administration, blood pressure was measured in a state where heart rate is constant by means of an […] automatic rat/mouse blood pressure measuring apparatus (BP-97A, product of Softron) according to the tail-cuff method (J. Lab. Clin. Med. 1971; 78: 957-962). For comparison, a solvent (0.5% HPMC) or raloxifene, serving as a control drug, was administered in a dose of 100 mg once a day for consecutive seven days.
Percent increase/decrease in blood pressure after final administration of the test drug was obtained on the basis of the blood pressure as measured before final administration of the drug, and the thus-obtained values were compared with one another.

estrogen receptor (ER) = conditions: cited from earlier work
estrogen receptor α = molecular target: T1, estrogen receptor α (Homo sapiens, UniProt P03372); conditions: cited from earlier work
T1 sequence (P03372 1-595): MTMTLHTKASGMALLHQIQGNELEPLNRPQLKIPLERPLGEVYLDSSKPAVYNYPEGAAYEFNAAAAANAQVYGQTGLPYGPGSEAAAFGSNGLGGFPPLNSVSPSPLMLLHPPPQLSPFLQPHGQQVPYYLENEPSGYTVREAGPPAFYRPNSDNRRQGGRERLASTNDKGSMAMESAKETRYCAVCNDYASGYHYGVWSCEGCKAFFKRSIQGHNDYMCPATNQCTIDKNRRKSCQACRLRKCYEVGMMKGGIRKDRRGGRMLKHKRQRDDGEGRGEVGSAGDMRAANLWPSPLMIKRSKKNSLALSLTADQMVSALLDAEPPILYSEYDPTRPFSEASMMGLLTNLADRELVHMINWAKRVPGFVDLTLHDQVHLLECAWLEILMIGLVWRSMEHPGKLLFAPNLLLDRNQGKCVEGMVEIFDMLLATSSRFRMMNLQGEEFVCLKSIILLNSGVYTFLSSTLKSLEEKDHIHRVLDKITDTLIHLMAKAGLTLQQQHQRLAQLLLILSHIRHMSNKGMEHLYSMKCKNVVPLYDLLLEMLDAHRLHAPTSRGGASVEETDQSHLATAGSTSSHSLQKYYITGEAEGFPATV

[3] = system: postmenopausal hypertensive patients; conditions: 142±13 mmHg before; cited from earlier work
[4] = SHR, relative to pressure before final administration, FIG. 5
[5] = SHR, during the course of measurement, FIG. 7

SMILES: CCN(CC)Cc1ccc(OCC[C@H]2CCC3C4C(CC[C@@]32C)c2ccc(O)cc2C[C@H]4C)c(OC)c1 (stereo partly drawn) [TAS-108, (7α)-21-[4-[(Diethylamino)methyl]-2-methoxyphenoxy]-7-methyl-19-norpregna-1,3,5(10)-trien-3-ol]
- systolic or diastolic blood pressure ([1]; four hypertensive patients (systolic 140 mmHg or higher or diastolic 90 mmHg or higher), 40, 80 or 120 mg orally once a day, two to four weeks after initiation, FIGS. 1 to 3): reduced to fall within a normal pressure range
- change in blood pressure ([1]; remaining 11 breast cancer patients with normal blood pressure, during the course of administration, FIG. 4): no considerable change in blood pressure
- reduction of systolic blood pressure ([1]; typical hypertensive patient (FIG. 2), four weeks after initiation of administration): about 40 mmHg
- systolic blood pressure after administration ([1]; typical hypertensive patient (FIG. 2), four weeks after initiation, 180 mmHg before administration): 138 mmHg
- change in heart rate ([2]; SHR): No considerable change in heart rate
- time of maximum percent decrease in blood pressure ([2]; SHR, after final administration, FIG. 5): two hours after administration
- reduction of diastolic blood pressure [2, 4]: 46.9%
- reduction of mean blood pressure [2, 4]: 28.6%
- blood pressure ([2]; all SHRs, one to two hours after final administration): blood pressure was reduced
- affinity to estrogen receptor (ER) (estrogen receptor (ER)): strong affinity
- agonistic effect on estrogen receptor α (estrogen receptor α): virtually no agonistic effect
- antagonistic effect on estrogen receptor α (estrogen receptor α): potent antagonistic effect

SMILES: O=C(c1ccc(OCCN2CCCCC2)cc1)c1c(-c2ccc(O)cc2)sc2cc(O)ccc12 [raloxifene, reference compound]
- change in heart rate ([2]; SHR): no considerable change
- change in diastolic blood pressure [2, 5]: no considerable change
- change in mean blood pressure [2, 5]: no considerable change
- change in systolic blood pressure [2, 5]: no considerable change
- systolic blood pressure after administration [3]: 139±10 mmHg

Reference: US9650408B2, “Therapeutic agent for hypertension” (SRI INTERNATIONAL, priority 2005, dated 2017)
